Test results from paper PMC9573696, “Experimental Examination of Solubility and Lipophilicity as Pharmaceutically Relevant Points of Novel Bioactive Hybrid Compounds” (Molecules, 2022).

Legend:
Format in all cases: physicochemical
[1] = Partition in system 1-octanol/buffer pH 7.4, shake-flask method; conditions: for logP at 2 days: from concentrations in mole fraction; for logD at 2 days / logPo/b: from concentrations in mol∙L^−1; for sb × 10^6 (concentration in buffer) / so × 10^4 (concentration in 1-octanol) / xb × 10^7 (mole fraction in buffer) / xo × 10^5 (mole fraction in 1-octanol) / logPo/b / so × 10^3 (concentration in 1-octanol) / xo × 10^4 (mole fraction in 1-octanol): 1-octanol/buffer pH 7.4
Experimental: The partition coefficients of the new hybrid compounds in the model system 1-octanol/buffer pH 7.4 as a lipophilicity surrogate were determined experimentally. […] It is the lipophilic properties that allow the hybrids to move from the water phase to the less hydrophilic octanol phase, where the solute–solvent intermolecular interactions are more favourable. According to the results shown in Table 5, the order of changes in the partition coefficients logPo/b at T = 298.15 K, depending on the substituent nature, is expressed as the inequality: Cl- (1.65) < F- (2.40) < CH3- (2.50). Compounds I and II are the most lipophilic in the series of the studied substances, whereas the introduction of a chlorine atom considerably lowers the partition coefficient (~0.8 log units). This fact agrees with the common concept that lipophilic groups are usually hydrocarbon or fluorine-containing radicals. […] For drugs with such partition coefficients, there is a good balance between the solubility and permeability through passive diffusion and minimum metabolism due to the low binding capacity with enzymes.
The octanol/buffer pH 7.4 partition coefficient logPO/B is measured in a static mode using the shake-flask method. The procedure has been presented as standard in the Organization for Economic Cooperation and Development (OECD) guidelines for testing chemicals. The equipment described above was also used for the determination of the 1-octanol/water partition coefficients. […] The correctness of the obtained value of each compound was verified by checking the mass balance of the starting amount of the compound and the total amount of the compound partitioned between the two phases.
To aim evaluated transfer (partition) thermodynamic functions, the 1-octanol/buffer partition coefficients P^* o/b as the ratio of equilibrium concentrations in the organic (xo) and aqueous phases (xb) expressed in mole fractions were calculated: P* o/b = xo/xb(12)

[2] = Apparent thermodynamic functions of dissolution (van't Hoff); conditions: Thm = 302.98 K
Description: The dissolution of the new hybrids was characterized based on apparent thermodynamic parameters obtained from temperature dependences of solubility of the studied compounds in the selected solvents (Figure 6). […] The van’t Hoff enthalpy of dissolution can be expressed as the inclination of a tangent to a solubility curve plotted as lnx vs. (1/T − 1/Thm) by Equation (6): (6) ΔHsolo=−R(∂lnx/∂(1/T−1/Thm))=−R⋅slope where R = 8.314 J⋅K^−1·mol^−1 is the universal gas constant. Thm = 302.98 K denotes the mean harmonic temperature, which was calculated by Equation (7):(7) Thm=n/∑i=1n1/Ti where n represented the number of experimental temperatures. The apparent standard Gibbs energy was evaluated by Equation (8):(8) ΔGsolo=−RThm×intersept
The apparent standard solution entropies were obtained from the well-known relationship:(9) ΔSsolo=ΔHsolo−ΔGsolo/Thm
The calculated apparent thermodynamic solubility functions of dissolution (Gibbs energy, enthalpy, and entropy) at standard temperature 298.15 K for hybrid compounds were collected in Table 4.

[3] = Thermodynamic functions of transfer 1-octanol/buffer pH 7.4; conditions: 298.15 K
Experimental: The temperature variation of the partition coefficient provides enthalpic and entropic contributions to the free energy of transfer. The thermodynamic transfer functions for hybrids I–III in the 1-octanol/buffer pH 7.4 system were calculated by Equations (12)–(16) and are summarized in Table 6. The standard Gibbs energy values for all the compounds are negative. Therefore, the transfer from the aqueous medium to the organic phase within the studied temperature range is thermodynamically favourable and spontaneous. The standard transfer enthalpies of all the studied compounds are positive, which means the process is endothermic. Energy is consumed during the transfer to overcome the hydrophobic effects in water (destruction of the molecule solvate shell structure), destruction of the solvent–solute interactions in the aqueous medium and creation of a cavity in the organic phase where the solute molecules can enter.
The standard change in Gibbs free energy of transfer (∆trG^o) from the buffer to the organic phase was calculated by Equation (14):∆trG^o = −RTlnP*o/b(14)
The standard change entropy of transfer (∆trS^o) is determined as follows:∆trS^o = (∆trH^o − ∆trG^o)/T(15)

[4] = 1-octanol/buffer pH 7.4, pH 7.4, 1-octanol/buffer pH 7.4, 293.15 K
[5] = 1-octanol/buffer pH 7.4, pH 7.4, 1-octanol/buffer pH 7.4, 308.15 K
[6] = 1-octanol/buffer pH 7.4, pH 7.4, 1-octanol/buffer pH 7.4, 313.15 K
[7] = pH 7.4, 1-octanol/buffer pH 7.4, 293.15 K
[8] = pH 7.4, 1-octanol/buffer pH 7.4, 298.15 K
[9] = pH 7.4, 1-octanol/buffer pH 7.4, 303.15 K
[10] = pH 7.4, 1-octanol/buffer pH 7.4, 313.15 K

O=c1c2sc(=S)n(-c3ccc(Cl)cc3)c2ncn1CCCN1CCN(CC(O)(Cn2cncn2)c2ccc(F)cc2F)CC1 (centres unmarked) [III, 6-[3-[4-[2-(2,4-difluorophenyl)-2-hydroxy-3-(1H-1,2,4-triazol-1-yl)propyl]-1-piperazinyl]propyl]-2,3-dihydro-3-(4-chlorophenyl)-2-thioxo-thiazolo[4,5-d]pyrimidin-7(6H)-one]
logP at 2 days [1, 4]: 2.56
logD at 2 days [1, 4]: 1.62
logP at 2 days ([1]; 1-octanol/buffer pH 7.4, pH 7.4, 1-octanol/buffer pH 7.4, 298.15 K): 2.59
logP at 2 days ([1]; 1-octanol/buffer pH 7.4, pH 7.4, 1-octanol/buffer pH 7.4, 303.15 K): 2.61
logP at 2 days [1, 5]: 2.64
logD at 2 days [1, 5]: 1.7
logP at 2 days [1, 6]: 2.69
logD at 2 days [1, 6]: 1.73
sb × 10^6 (concentration in buffer) ([1]; 293.15 K): 9.29 mol∙L^−1 (printed as sb × 10^6
so × 10^4 (concentration in 1-octanol) ([1]; 293.15 K): 3.89 mol∙L^−1 (printed as so × 10^4
xb × 10^7 (mole fraction in buffer) ([1]; 293.15 K): 1.69 mole fraction (printed as xb ×
xo × 10^5 (mole fraction in 1-octanol) ([1]; 293.15 K): 6.14 mole fraction (printed as xo ×
sb × 10^6 (concentration in buffer) ([1]; 298.15 K): 8.77 mol∙L^−1 (printed as sb × 10^6
so × 10^4 (concentration in 1-octanol) ([1]; 298.15 K): 3.90 mol∙L^−1 (printed as so × 10^4
xb × 10^7 (mole fraction in buffer) ([1]; 298.15 K): 1.60 mole fraction (printed as xb ×
xo × 10^5 (mole fraction in 1-octanol) ([1]; 298.15 K): 6.17 mole fraction (printed as xo ×
logPo/b ([1]; 298.15 K): 1.65
sb × 10^6 (concentration in buffer) ([1]; 303.15 K): 8.29 mol∙L^−1 (printed as sb × 10^6
so × 10^4 (concentration in 1-octanol) ([1]; 303.15 K): 3.91 mol∙L^−1 (printed as so × 10^4
xb × 10^7 (mole fraction in buffer) ([1]; 303.15 K): 1.51 mole fraction (printed as xb ×
xo × 10^5 (mole fraction in 1-octanol) ([1]; 303.15 K): 6.21 mole fraction (printed as xo ×
logPo/b ([1]; 303.15 K): 1.67
sb × 10^6 (concentration in buffer) ([1]; 308.15 K): 7.80 mol∙L^−1 (printed as sb × 10^6
so × 10^4 (concentration in 1-octanol) ([1]; 308.15 K): 3.91 mol∙L^−1 (printed as so × 10^4
xb × 10^7 (mole fraction in buffer) ([1]; 308.15 K): 1.42 mole fraction (printed as xb ×
xo × 10^5 (mole fraction in 1-octanol) ([1]; 308.15 K): 6.24 mole fraction (printed as xo ×
sb × 10^6 (concentration in buffer) ([1]; 313.15 K): 7.36 mol∙L^−1 (printed as sb × 10^6
so × 10^4 (concentration in 1-octanol) ([1]; 313.15 K): 3.92 mol∙L^−1 (printed as so × 10^4
xb × 10^7 (mole fraction in buffer) ([1]; 313.15 K): 1.35 mole fraction (printed as xb ×
xo × 10^5 (mole fraction in 1-octanol) ([1]; 313.15 K): 6.28 mole fraction (printed as xo ×
TΔSsolo ([2]; 1-Octanol): -0.22 kcal/mol
ΔGsolo ([2]; 1-Octanol): 3.68 ± 0.072 kcal/mol
ΔHsolo ([2]; 1-Octanol): 3.47 ± 0.024 kcal/mol
ΔSsolo ([2]; 1-Octanol): −3.1 ± 0.2 J·mol^−1·K^−1
TΔSsolo ([2]; Buffer pH 2.0): -4.59 kcal/mol
ΔGsolo ([2]; Buffer pH 2.0): 6.69 ± 0.096 kcal/mol
ΔHsolo ([2]; Buffer pH 2.0): 2.1 ± 0.024 kcal/mol
ΔSsolo ([2]; Buffer pH 2.0): −64.4 ± 3.8 J·mol^−1·K^−1
TΔSsolo ([2]; Buffer pH 7.4): -2.87 kcal/mol
ΔGsolo ([2]; Buffer pH 7.4): 8.05 ± 0.17 kcal/mol
ΔHsolo ([2]; Buffer pH 7.4): 5.19 ± 0.048 kcal/mol
ΔSsolo ([2]; Buffer pH 7.4): −40.3 ± 2.3 J·mol^−1·K^−1
T∆trS^o [3]: 5.81 ± 0.239 kcal/mol
∆trG^o [3]: -3.54 ± 0.048 kcal/mol
∆trH^o [3]: 2.27 ± 0.024 kcal/mol
∆trS^o [3]: 81.5 ± 1.5 J·mol^−1·K^−1

Cc1ccc(-n2c(=S)sc3c(=O)n(CCCN4CCN(CC(O)(Cn5cncn5)c5ccc(F)cc5F)CC4)cnc32)cc1 (centres unmarked) [I, 6-[3-[4-[2-(2,4-difluorophenyl)-2-hydroxy-3-(1H-1,2,4-triazol-1-yl)propyl]-1-piperazinyl]propyl]-2,3-dihydro-3-(4-methylphenyl)-2-thioxo-thiazolo[4,5-d]pyrimidin-7(6H)-one]
sb × 10^6 (concentration in buffer) ([1]; 293.15 K): 10.2 mol∙L^−1 (printed as sb × 10^6
so × 10^3 (concentration in 1-octanol) ([1]; 293.15 K): 2.88 mol∙L^−1 (printed as so × 10^3
xb × 10^7 (mole fraction in buffer) ([1]; 293.15 K): 1.82 mole fraction (printed as xb ×
xo × 10^4 (mole fraction in 1-octanol) ([1]; 293.15 K): 4.54 mole fraction (printed as xo ×
sb × 10^6 (concentration in buffer) ([1]; 298.15 K): 9.11 mol∙L^−1 (printed as sb × 10^6
so × 10^3 (concentration in 1-octanol) ([1]; 298.15 K): 2.88 mol∙L^−1 (printed as so × 10^3
xb × 10^7 (mole fraction in buffer) ([1]; 298.15 K): 1.63 mole fraction (printed as xb ×
xo × 10^4 (mole fraction in 1-octanol) ([1]; 298.15 K): 4.57 mole fraction (printed as xo ×
sb × 10^6 (concentration in buffer) ([1]; 303.15 K): 7.95 mol∙L^−1 (printed as sb × 10^6
so × 10^3 (concentration in 1-octanol) ([1]; 303.15 K): 2.88 mol∙L^−1 (printed as so × 10^3
xb × 10^7 (mole fraction in buffer) ([1]; 303.15 K): 1.43 mole fraction (printed as xb ×
xo × 10^4 (mole fraction in 1-octanol) ([1]; 303.15 K): 4.59 mole fraction (printed as xo ×
sb × 10^6 (concentration in buffer) ([1]; 308.15 K): 7.16 mol∙L^−1 (printed as sb × 10^6
so × 10^3 (concentration in 1-octanol) ([1]; 308.15 K): 2.88 mol∙L^−1 (printed as so × 10^3
xb × 10^7 (mole fraction in buffer) ([1]; 308.15 K): 1.29 mole fraction (printed as xb ×
xo × 10^4 (mole fraction in 1-octanol) ([1]; 308.15 K): 4.61 mole fraction (printed as xo ×
logPo/b ([1]; 308.15 K): 2.60
sb × 10^6 (concentration in buffer) ([1]; 313.15 K): 6.38 mol∙L^−1 (printed as sb × 10^6
so × 10^3 (concentration in 1-octanol) ([1]; 313.15 K): 2.88 mol∙L^−1 (printed as so × 10^3
xb × 10^7 (mole fraction in buffer) ([1]; 313.15 K): 1.15 mole fraction (printed as xb ×
xo × 10^4 (mole fraction in 1-octanol) ([1]; 313.15 K): 4.63 mole fraction (printed as xo ×
logP at 2 days [1, 7]: 3.39
logD at 2 days [1, 7]: 2.45
logP at 2 days [1, 8]: 3.44
logD at 2 days [1, 8]: 2.5
logP at 2 days [1, 9]: 3.5
logD at 2 days [1, 9]: 2.56
logP at 2 days ([1]; pH 7.4, 1-octanol/buffer pH 7.4, 308.15 K): 3.55
logP at 2 days [1, 10]: 3.6
logD at 2 days [1, 10]: 2.65
TΔSsolo ([2]; 1-Octanol): -1.48 kcal/mol
ΔGsolo ([2]; 1-Octanol): 4.02 ± 0.048 kcal/mol
ΔHsolo ([2]; 1-Octanol): 2.53 ± 0.048 kcal/mol
ΔSsolo ([2]; 1-Octanol): −20.8 ± 1.1 J·mol^−1·K^−1
TΔSsolo ([2]; Buffer pH 2.0): -3.23 kcal/mol
ΔGsolo ([2]; Buffer pH 2.0): 6.07 ± 0.12 kcal/mol
ΔHsolo ([2]; Buffer pH 2.0): 2.84 ± 0.024 kcal/mol
ΔSsolo ([2]; Buffer pH 2.0): −45.2 ± 2.4 J·mol^−1·K^−1
TΔSsolo ([2]; Buffer pH 7.4): -4.54 kcal/mol
ΔGsolo ([2]; Buffer pH 7.4): 7.7 ± 0.14 kcal/mol
ΔHsolo ([2]; Buffer pH 7.4): 3.15 ± 0.024 kcal/mol
ΔSsolo ([2]; Buffer pH 7.4): −63.6 ± 4.1 J·mol^−1·K^−1
T∆trS^o [3]: 9.08 ± 0.22 kcal/mol
∆trG^o [3]: -4.68 ± 0.12 kcal/mol
∆trH^o [3]: 4.37 ± 0.072 kcal/mol
∆trS^o [3]: 127.4 ± 4.7 J·mol^−1·K^−1
